In patent publication US8946436B2, “Oxazolidinone compounds and their uses in preparation of antibiotics” (Sichuan Gooddoctor Pharmaceutical Group Co., Ltd., priority 2011, dated 2015):
In brackets after ≈: the same amount, converted by molar mass. Like-named read-outs stand apart in the source and are kept apart here.

What was measured:
[1] = tested on: S. agalactiae; assay: In vitro antibacterial activity (MIC), S. agalactiae; format: cell-based; conditions: Streptococcus agalactiae
Procedure: (§1) The test strain was inoculated into the liquid medium and cultured at 37° C. for 16-18 h. The culture liquid and MH medium were put into two blank wells of a 96-well plate, respectively. Then, the absorptions thereof were measured by a Microplate reader. The difference between the absorption values of the culture liquid and MH medium is the adsorption of the bacteria. The concentration of the culture liquid can be calculated according to the formula of 1OD=50 million CFU/mL. The culture liquid was diluted with the MH bouillon culture medium to 5000 CFU/mL for further use.
(§2) Compounds 12a, 13 and 14 were dissolved in DMSO to 1 mg/mL, and then filtered with a 0.22 μm filter to obtain the compound solutions. And then they were gradually diluted to a desired concentration (10× final concentration) with the liquid medium, so as to obtain a series of dilutions. The final concentration grade of the dilutions of each tested compound consists of 14 concentrations, which includes: 0.03125 μg/mL, […], 0.125 μg/mL, 0.25 μg/mL, […], 1 μg/mL, 2 μg/mL, 4 μg/mL, 8 μg/mL, 16 μg/mL, 32 μg/mL, 64 μg/mL, 128 μg/mL and 256 μg/mL.
(§3) 10 μL of each of the compound dilutions above was added into a well of a 96-well plate. 90 μL of the culture liquid (5000 CFU/mL) was added into each of the wells, respectively, mixed with the dilutions to render the tested compound concentration to the final concentration. The resulted mixture was incubated at 37° C. for 16-18 h, and then the OD630 thereof was measured. A culture liquid free of the tested compounds is used as a blank control, and three parallel tests with the same concentration of each compound were performed. The minimum inhibitory concentration (MIC) of each compound on the standard strain of Staphylococcus Aureus and other test strains was determined. Specifically, among the culture liquid contained in the wells of the micro-plate, the first three lowest concentrations under which growth of the test strains could be observed were chose for further evaluation of the MIC. A culture liquid free of tested compounds was used as a blank control. Each of the culture liquids was homogenized independently, and then was diluted with a sterile saline. Each of the diluted culture liquids was plated onto a MH bouillon plate and incubated at 37° C. for 20 h in incubator. After the incubation, the number of the colonies on each plate was counted. As compared with the blank control group, the lowest concentration of each of the test compound groups, at which 80% reduction in the colony number of the strains was achieved, was recorded as the MIC.

[2] = tested on: S. pneumoniae; assay: In vitro antibacterial activity (MIC), S. pneumoniae; format: cell-based; conditions: Streptococcus pneumoniae
Procedure: as §1, §2, §3

[3] = tested on: HEK-293; assay: Cytotoxicity experiment (MTT), HEK-293; format: cell-based; conditions: Homo sapiens, HEK293, 48 h, HEK-293 normal cells, read-out: Inhibition ratio
Procedure: (§4) (1) Inoculating cells: Experimental cells in the growth of logarithmic phase were collected and suspended. The cell concentration of the suspension was adjusted so that they could be inoculated into the wells of 96-well micro plate at a density between 10^3-10^4 cells per well (200 μl per well). (2) Culturing cells: The cells were cultured at normal conditions for 3 days and then exposed to 50 uM compounds for test. (3) Coloring reaction: At 24 h, 48 h and 72 h after the cells being exposed to the compounds for test, 200 μl culture medium containing 20 μl MTT solution (5 mg/ml) was added into each well, and the well was further incubated at 37° C. for 2 hours to terminate the incubation. After the incubation, the supernatants were removed from the wells. In the event there were suspended cells in the wells, centrifugation should be performed before removal of supernatant from the wells. After the removal, 150 μl DMSO was added to each well and mixed thoroughly by agitation for 10 mins to fully dissolve crystals. (4) Ascertainment of colorimetry: The absorbance value at 490 nm of each well was determined by Enzyme-linked immunosorbent Monitor. The growth curve of the experimental cells was plotted by taking time as x-coordinate and absorbance value as y-coordinate. In addition, an inhibition ratio could be calculated in accordance with the following formula: Inhibition ratio=(absorbance value of control group-absorbance value of administering group)/absorbance value of control group×100%.

[4] = tested on: L-02; assay: Cytotoxicity experiment (MTT), L-02; format: cell-based; conditions: Homo sapiens, L02, 48 h, L-02 normal cells, read-out: Inhibition ratio
Procedure: as §4

[5] = tested on: E. faecalis; assay: In vitro antibacterial activity (MIC), E. faecalis; format: cell-based; conditions: Enterococcus faecalis
Procedure: as §1, §2, §3

[6] = tested on: S. aureus; assay: In vitro antibacterial activity (MIC), S. aureus; format: cell-based, Staphylococcus Aureus; conditions: Staphylococcus aureus
Procedure: Strains: strain ATCC25923 is available from the American Type Culture Collection, and is used as a standard strain of Staphylococcus Aureus;
Liquid medium: MH bouillon culture medium, a product of BD Company, United States of American;
Tested Compounds: compounds 12a, 13 and 14 prepared according to the methods above, and Linezolid purchased from Pfizer.
as §1, §2, §3

[7] = S. agalactiae (5 strains), read-out: MIC
[8] = S. pneumoniae (10 strains), read-out: MIC
[9] = E. faecalis (7 strains), read-out: MIC
[10] = S. aureus (12 strains), read-out: MIC

SMILES | melting point | MIC [1, 7] | MIC [2, 8] | MIC [5, 9] | MIC [6, 10] | MIC [1] | MIC [2] | cytotoxicity at 50 µM [3] | cytotoxicity at 50 µM [4] | MIC [5] | MIC [6]
CC(=O)NC[C@H]1CN(c2ccc(-n3nccc3-c3ccc(Br)cc3)c(F)c2)C(=O)O1 [Compound 14d, (S)-N-((3-(3-fluoro-4-(5-(4-bromophenyl)-1H-pyrazol-1-yl)phenyl)-2-oxooxazolidin-5-yl)methyl)acetamide] | 96.8 to 98.8 °C | – | – | – | – | 2 to 16 µg/mL (≈ 4.23 to 33.8 µM) | 1 to 8 µg/mL (≈ 2.11 to 16.9 µM) | 55% | 39% | 2 to 16 µg/mL (≈ 4.23 to 33.8 µM) | 2 to 16 µg/mL (≈ 4.23 to 33.8 µM)
CC(=O)NC[C@H]1CN(c2ccc(-n3ccc(-c4ccccn4)n3)c(F)c2)C(=O)O1 [Compound 12a, (S)-N-((3-(3-fluoro-4-(3-(pyridin-2-yl)-1H-pyrazol-1-yl)phenyl)-2-oxooxazolidin-5-yl)methyl)acetamide] | – | 2 to 16 µg/mL (≈ 5.06 to 40.5 µM) | 1 to 16 µg/mL (≈ 2.53 to 40.5 µM) | 2 to 16 µg/mL (≈ 5.06 to 40.5 µM) | 2 to 16 µg/mL (≈ 5.06 to 40.5 µM) | – | – | 5.5% | 20% | – | –
CC(=O)NC[C@H]1CN(c2ccc(-n3nccc3-c3cccc(Br)n3)c(F)c2)C(=O)O1 [Compound 14b, (S)-N-((3-(3-fluoro-4-(5-(6-bromopyridin-2-yl)-1H-pyrazol-1-yl)phenyl)-2-oxooxazolidin-5-yl)methyl) acetamide] | 90.5 to 92.3 °C | 4 to 32 µg/mL (≈ 8.43 to 67.5 µM) | 2 to 32 µg/mL (≈ 4.22 to 67.5 µM) | 4 to 32 µg/mL (≈ 8.43 to 67.5 µM) | 4 to 32 µg/mL (≈ 8.43 to 67.5 µM) | – | – | 19.5% | 21% | – | –
COc1ccc(-c2ccnn2-c2ccc(N3C[C@H](CNC(C)=O)OC3=O)cc2F)cc1OC [Compound 14j, (S)-N-((3-(3-fluoro-4-(5-(3,4-dimethoxyphenyl)-1H-pyrazol-1-yl)phenyl)-2-oxooxazolidin-5-yl)methyl) acetamide] | 153.7 to 156.1 °C | – | – | – | – | 0.25 to 2 µg/mL (≈ 0.55 to 4.4 µM) | 0.25 to 1 µg/mL (≈ 0.55 to 2.2 µM) | 7% | 12% | 0.5 to 2 µg/mL (≈ 1.1 to 4.4 µM) | 0.25 to 2 µg/mL (≈ 0.55 to 4.4 µM)
COc1ccc(-c2cnn(-c3ccc(N4C[C@H](CNC(C)=O)OC4=O)cc3F)c2)cc1 [Compound 13c, (S)-N-((3-(3-fluoro-4-(4-(4-methoxyphenyl)-1H-pyrazol-1-yl)phenyl)-2-oxooxazolidin-5-yl)methyl) acetamide] | 226.1 to 227.8 °C | 0.5 to 8 µg/mL (≈ 1.18 to 18.8 µM) | 0.5 to 8 µg/mL (≈ 1.18 to 18.8 µM) | 0.25 to 8 µg/mL (≈ 0.589 to 18.8 µM) | 1 to 8 µg/mL (≈ 2.36 to 18.8 µM) | – | – | 32% | 10.4% | – | –
CSc1ccc(-c2ccnn2-c2ccc(N3C[C@H](CNC(C)=O)OC3=O)cc2F)cc1 [Compound 14f, (S)-N-((3-(3-fluoro-4-(5-(4-(methylthio)phenyl)-1H-pyrazol-1-yl)phenyl)-2-oxooxazolidin-5-yl)methyl) acetamide] | 175.4 to 177.6 °C | 0.25 to 8 µg/mL (≈ 0.568 to 18.2 µM) | 0.5 to 8 µg/mL (≈ 1.14 to 18.2 µM) | 0.5 to 8 µg/mL (≈ 1.14 to 18.2 µM) | 1 to 8 µg/mL (≈ 2.27 to 18.2 µM) | – | – | 40% | 29% | – | –

Second part, led by results:

melting point | MIC [1, 7] | MIC [2, 8] | MIC [5, 9] | MIC [6, 10] | SMILES | MIC [1] | MIC [2] | cytotoxicity at 50 µM [3] | cytotoxicity at 50 µM [4] | MIC [5] | MIC [6]
221.5 to 222.8 °C | 0.25 to 8 µg/mL (≈ 0.612 to 19.6 µM) | 0.5 to 8 µg/mL (≈ 1.22 to 19.6 µM) | 0.5 to 8 µg/mL (≈ 1.22 to 19.6 µM) | 1 to 8 µg/mL (≈ 2.45 to 19.6 µM) | CC(=O)NC[C@H]1CN(c2ccc(-n3cc(-c4ccc(C)cc4)cn3)c(F)c2)C(=O)O1 [Compound 13b, (S)-N-((3-(3-fluoro-4-(4-(p-tolyl)-1H-pyrazol-1-yl)phenyl)-2-oxooxazolidin-5-yl)methyl)acetamide] | – | – | 12% | 5.58% | – | –
279.6 to 280.2 °C | 0.5 to 4 µg/mL (≈ 1.14 to 9.1 µM) | 0.5 to 8 µg/mL (≈ 1.14 to 18.2 µM) | 1 to 8 µg/mL (≈ 2.28 to 18.2 µM) | 1 to 8 µg/mL (≈ 2.28 to 18.2 µM) | CC(=O)NC[C@H]1CN(c2ccc(-n3cc(-c4ccc(C(=O)O)cn4)cn3)c(F)c2)C(=O)O1 [Compound 13e, (S)-N-((3-(3-fluoro-4-(4-(5-carboxyl-pyridin-2-yl)-1H-pyrazol-1-yl)phenyl)-2-oxooxazolidin-5-yl)methyl) acetamide] | – | – | 36.3% | 38% | – | –
89.5 to 91.9 °C | 2 to 32 µg/mL (≈ 4.9 to 78.3 µM) | 2 to 16 µg/mL (≈ 4.9 to 39.2 µM) | 2 to 32 µg/mL (≈ 4.9 to 78.3 µM) | 4 to 32 µg/mL (≈ 9.79 to 78.3 µM) | CC(=O)NC[C@H]1CN(c2ccc(-n3nccc3-c3ccc(C)cc3)c(F)c2)C(=O)O1 [Compound 14c, (S)-N-((3-(3-fluoro-4-(5-(p-tolyl)-1H-pyrazol-1-yl)phenyl)-2-oxooxazolidin-5-yl)methyl)acetamide] | – | – | 40% | 39% | – | –
74.5 to 76.3 °C | 0.5 to 8 µg/mL (≈ 1.26 to 20.2 µM) | 0.25 to 4 µg/mL (≈ 0.632 to 10.1 µM) | 0.5 to 8 µg/mL (≈ 1.26 to 20.2 µM) | 1 to 4 µg/mL (≈ 2.53 to 10.1 µM) | CC(=O)NC[C@H]1CN(c2ccc(-n3nccc3-c3ccncc3)c(F)c2)C(=O)O1 [Compound 14h, (S)-N-((3-(3-fluoro-4-(5-(pyridin-4-yl)-1H-pyrazol-1-yl)phenyl)-2-oxooxazolidin-5-yl)methyl)acetamide] | – | – | 5% | 14% | – | –
111.4 to 112.9 °C | 0.5 to 4 µg/mL (≈ 1.21 to 9.7 µM) | 0.5 to 8 µg/mL (≈ 1.21 to 19.4 µM) | 1 to 8 µg/mL (≈ 2.42 to 19.4 µM) | 1 to 8 µg/mL (≈ 2.42 to 19.4 µM) | CC(=O)NC[C@H]1CN(c2ccc(-n3nccc3-c3ccc(F)cc3)c(F)c2)C(=O)O1 [Compound 14i, (S)-N-((3-(3-fluoro-4-(5-(4-fluorophenyl)-1H-pyrazol-1-yl)phenyl)-2-oxooxazolidin-5-yl)methyl)acetamide] | – | – | 5.5% | 9% | – | –
92.7 to 95.4 °C | 0.5 to 8 µg/mL (≈ 1.05 to 16.9 µM) | 0.5 to 8 µg/mL (≈ 1.05 to 16.9 µM) | 0.25 to 8 µg/mL (≈ 0.527 to 16.9 µM) | 1 to 8 µg/mL (≈ 2.11 to 16.9 µM) | CC(=O)NC[C@H]1CN(c2ccc(-n3nccc3-c3ccc(Br)cn3)c(F)c2)C(=O)O1 [Compound 14g, (S)-N-((3-(3-fluoro-4-(5-(5-bromopyridin-2-yl)-1H-pyrazol-1-yl)phenyl)-2-oxooxazolidin-5-yl)methyl) acetamide] | – | – | 10% | 5.9% | – | –
– | 2 to 16 µg/mL (≈ 5.06 to 40.5 µM) | 1 to 16 µg/mL (≈ 2.53 to 40.5 µM) | 2 to 16 µg/mL (≈ 5.06 to 40.5 µM) | 2 to 16 µg/mL (≈ 5.06 to 40.5 µM) | CC(=O)NC[C@H]1CN(c2ccc(-n3nccc3-c3cccnc3)c(F)c2)C(=O)O1 [Compound 14a, (S)-N-((3-(3-fluoro-4-(5-(pyridin-3-yl)-1H-pyrazol-1-yl)phenyl)-2-oxooxazolidin-5-yl)methyl)acetamide] | – | – | 14% | 7.51% | – | –
– | 0.25 to 16 µg/mL (≈ 0.632 to 40.5 µM) | 0.125 to 16 µg/mL (≈ 0.316 to 40.5 µM) | 0.25 to 16 µg/mL (≈ 0.632 to 40.5 µM) | 0.5 to 16 µg/mL (≈ 1.26 to 40.5 µM) | CC(=O)NC[C@H]1CN(c2ccc(-n3cc(-c4ccncc4)cn3)c(F)c2)C(=O)O1 [Compound 13a, (S)-N-((3-(3-fluoro-4-(4-(pyridin-4-yl)-1H-pyrazol-1-yl)phenyl)-2-oxooxazolidin-5-yl)methyl)acetamide] | – | – | 11% | 4% | – | –
